Experimental data taken from patent US20050025839A1, “Formulation approach to enhance transporter-mediated drug uptake” (priority 2003, published 2005).

Assays:
[1] = biological target: T1, hASBT (Homo sapiens, UniProt Q12908); assay: Sodium-enhanced uptake into COS-hASBT cells (FIG. 1); format: cell-based; details: with vs without sodium
T1 construct: expressed in transfected cells; host or cells: COS cells (COS-hASBT)
T1 sequence (Q12908 1-348): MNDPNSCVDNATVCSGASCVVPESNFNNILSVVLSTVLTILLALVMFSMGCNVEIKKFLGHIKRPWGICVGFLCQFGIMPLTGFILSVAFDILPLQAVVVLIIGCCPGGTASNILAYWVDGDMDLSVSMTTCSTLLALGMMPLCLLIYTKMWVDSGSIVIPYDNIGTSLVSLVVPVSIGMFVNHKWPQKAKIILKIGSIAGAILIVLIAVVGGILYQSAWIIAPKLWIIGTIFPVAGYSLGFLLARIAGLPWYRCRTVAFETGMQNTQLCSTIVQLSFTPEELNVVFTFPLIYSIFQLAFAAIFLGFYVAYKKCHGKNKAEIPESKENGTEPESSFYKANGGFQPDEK
Text: FIG. 1 illustrates how this invention provides for improved uptake of active agent, and specifically the impact of sodium on the uptake of an acyclovir prodrug that utilizes the hASBT transporter, which is a sodium-dependent transporter. […] COS-hASBT cells express hASBT. Acyclovir valylchenodeoxycholate is a prodrug of acyclovir, where acyclovir valylchenodeoxycholate is a substrate for hASBT. Uptake from acyclovir valylchenodeoxycholate prodrug and uptake from acyclovir are shown as closed bar and open bar, respectively. […] Error bars represent SEM's.

[2] = prodrug vs acyclovir, refs (9,10); cited from earlier work

SMILES	Effect of sodium on uptake into COS-hASBT cells [1]	in vivo oral acyclovir bioavailability [2]
CC(C)[C@H](NC(=O)CC[C@@H](C)[C@H]1CC[C@H]2[C@@H]3[C@H](O)C[C@@H]4C[C@H](O)CC[C@]4(C)[C@H]3CC[C@]12C)C(=O)OCCOCn1cnc2c(=O)[nH]c(N)nc21 [acyclovir valylchenodeoxycholate]	enhanced by sodium	enhance in vivo oral acyclovir bioavailability
Nc1nc2c(ncn2COCCO)c(=O)[nH]1 [acyclovir, reference compound]	did not enhance	–
